Laboratory results taken from patent publication US9011853B2, “B7-H4 fusion proteins and methods of use thereof” (Amplimmune, Inc., priority 2009, dated 2015).

What was measured:
[1] = system: CTLA4 KD/NOD mice; test: Autoimmune diabetes in CTLA4 KD/NOD mice; format: in vivo, mouse; details: 15 mg/kg i.p. 3 times per week for 4 weeks from age 2 weeks; mice 24 weeks old (22 weeks post treatment) (FIG. 49)
Experimental: Both female and male CTLA4 KD/NOD mice (Chen et al., PNAS, 103(44):16400-16405 (2006)) at age of 2 weeks were randomly assigned into experimental groups: vehicle (11 mice), and B7-H4-Ig (12 mice). Mice were treated with B7-H4-Ig 3 times per week for 4 weeks (15 mg/kg, per i.p. injection), and monitored 3 times per week for glucose content in the urine first with Diastix. […] Diabetes was determined when blood glucose reached ≧600 mg/dL.

[2] = system: SJL mice; test: Delayed-type hypersensitivity (DTH) responses, 24 hr ear swelling assay in R-EAE mice; format: in vivo, mouse; details: given from Day 0, 5 injections, both 3 mg/kg (60 μg) and 15 mg/kg (300 μg); ear challenge Day 10 (FIG. 39)
Experimental: DTH responses were quantitated using a 24 hr ear swelling assay as previously described. Pre-challenge ear thickness was determined using a Mitutoyo model 7326 engineer's micrometer (Schlesinger's Tools, Brooklyn, N.Y.). Immediately thereafter, DTH responses were elicited by injecting 10 μg of peptide in 10 μL of PBS into the dorsal surface of the ear using a 100 μL Hamilton syringe fitted with a 30 gauge needle. The increase in ear thickness over pre-challenge measurements was determined 24 hr after ear challenge. Results are expressed in units of 10^−4 inches±SEM. […] Significance of ear swelling in murine B7-H4-Ig treated mice over Control IgG injected mice was assessed by the Student's t test.
To determine the effect of B7-H4-Ig on blocking CD4^+ T cell mediated activity specific for the primary myelin-derived epitope PLP139-151 and epitope spreading, peptide-specific responses in vivo via DTH on all 4 treatment groups were analyzed. Mice were ear challenged with 10 μg of the indicated peptides on Day 50, and swelling was measured 24 h later.
To clarify the effect of B7-H4-Ig on the EAE acute phase, a 2nd in vivo experiment was conducted in the PLP139-151 induced MAE model. […] Mice were ear challenged with 10 μg of PLP139-151 on Day 10, and swelling was measured 24 h later. […]

[3] = system: mRNAs associated with Th17 cells, Tregs, autoimmune disorders and inflammation; test: Quantitative RT-PCR of mouse naïve T cells under Th17 differentiation cocktail; format: cell-based; details: 1 μg/mL, vs isotype control (Table 13, FIG. 54)
Experimental: CD4^+CD62L^+ naïve T cells were isolated from BALB/c mice as in the above examples, and activated by anti-CD3 and anti-CD28 bound beads in the presence of Th17 differntiation cocktail (TGF-β1 (10 ng/mL), IL-6 (50 ng/mL), IL-23 (4 ng/mL), anti-IL-4 (10 μg/mL), anti-IFN-γ (5 μg/mL) and anti-IL-2 (5 μg/mL)). Cells were incubated with either B7-H4-Ig (two different lots—#22 and #23—at 1 μg/mL) or isotype control. RNA was isolated from the cells and used for quantitative RT-PCR to test the expression levels of a large number of mRNAs associated with Th17 cells, Tregs, autoimmune disorders and inflammation (SA Biosciences mouse Th17 panel).

[4] = system: naïve CD4^+CD62L^+ T cells; test: In vitro Th2 polarization, proliferation; format: cell-based, mouse; details: Th2 conditions: IL-2, IL-4, anti-IL12 and anti-IFN-γ (FIG. 23)
Description: B7-H4-Ig has no impact on Th2 cells using the same target, naïve CD4^+CD62L^+ T cells, under Th2 in vitro polarization conditions: IL-2, IL-4, anti-IL12 and anti-IFN-γ (FIG. 23).

[5] = system: CD4^+CD62L^+ naïve T cells; test: Mouse Th17 assay, IL-17A ELISA; format: cell-based; details: 20, 10, 5, 2.5, and 1.25 μg/mL (FIGS. 57, 58)
Experimental: CD4^+CD62L^+ naïve T cells were isolated from BALB/c mice as in the above examples, and activated by anti-CD3 and anti-CD28 bound beads in the presence of Th17 differntiation cocktail (TGF-β1 (10 ng/mL), IL-6 (50 ng/mL), IL-23 (4 ng/mL), anti-IL-4 (10 μg/mL), anti-IFN-γ (5 μg/mL) and anti-IL-2 (5 μg/mL)). Murine B7-H4-Ig (10 μg/mL) or retinoic acid (RA) (10 μM) was added to the cultures on day 0, day 1, or day 2 of the 4 day culture. IL-17A levels were measured by ELISA at the end of the 4 day culture.
The Th17 assay is 4 days in duration. In order to determine when B7-H4-Ig is acting, the Th17 assay was performed with the addition of 10 μg/mL of murine B7-H4-Ig, 10 μg/mL of mouse IgG control, or […] retinoic acid on Day 0, Day 1, or Day 2.
Peripheral T cells were obtained from spleens and inguinal lymph nodes of 6-9 week old BALB/c mice by mechanical disruption through a cell strainer followed by red blood cell (RBC) lysis.
Naïve helper T cells (CD4^+CD62L^+) were obtained using the Miltenyi Biotec microbead system. CD4^+ cells are enriched by negative selection, and followed by a positive selection of CD62L^+. In some experiments CD25+ cells were also depleted.
After selection, cells are activated in vitro with anti-CD3/CD28 beads at a 1:1 cell:bead ratio in the presence of the TH17 differentiation cocktail (TGF-β1 (10 ng/ml), IL-6 (50 ng/ml), IL-23 (4 ng/ml), anti-IL-2 (5 μg/ml), anti-IL-4 (10 μg/ml), and anti-IFN-γ (5 μg/ml)). Murine B7-H4-Ig is added at a final concentration of 1.25-20 μg/ml. Retinoic acid (RA) is used as positive control and mouse IgG is used as a negative control.
After 4 days of culture, cultures are spun down and supernatants are harvested and stored at <−65° C. until analyzed for IL-17A levels by ELISA.

B7-H4-Ig: B7-H4 extracellular domain fused to Ig Fc; bare label is the human protein in Example 3, murine protein in Examples 1, 2, 5, 7-11
diabetes development (blood glucose ≧600 mg/dL) [1]: did not develop diabetes
DTH response to PLP139-151 peptide versus OVA323-339 peptide [2]: significantly inhibited
expression of mRNA involved in Th17 cell differentiation (RORc, IL-17A, IL-17F, IL-21, IL-22) [3]: downregulates the expression of mRNA involved in Th17 cell differentiation
impact on Th2 cells (proliferation) [4]: no impact

Human B7-H4-Ig: human B7-H4 extracellular domain fused to hinge, CH2 and CH3 regions of human immunoglobulin Cγ1 chain; representative SEQ ID NOs:114-137
activity on mouse cells in the Th17 assay (IL-17A) [5]: active
